Key:
Mouse OSCs = assay: NAD+ and NADH levels in mouse OSCs treated with mitochondrial enhancers; assay type: cell-based; conditions: 24 hours
Description: FIG. 35 depicts levels of NAD+ (A) and NADH (B) in OSCs treated with mitochondrial enhancers. Mouse OSCs maintained in culture (Zou et al., Nat Cell Biol 2009 11:631-636) were exposed to the indicated test compounds for 24 hours and then assessed for levels of NAD+ and NADH. Female infertility due to chemotherapy, aging and premature ovarian failure (POF) is due in part to a decline in mitochondrial function in oocytes and OSCs. Accordingly, OSCs from mice were used to screen for small compounds that enhance mitochondrial function (“bioenergetic status”) in female germline cells. Assays for enhancing mitochondrial function included mtDNA content, ATP, NAD+/NADH, mitochondrial mass, mitochondrial membrane potential, and gene expression of known mitochondrial mass regulators and electron transport chain components. All the compounds were dissolved in DMSO. For screening purposes the cells were treated with the vehicle (0.001% DMSO) or with 25 or 50 μM of each compound (except for berberine, which the concentrations used for the screen were 5 μM and 25 μM) for 24 hours. For validation of the top 6 hits, cells were treated with vehicle (0.001% DMSO) or either 5 or 25 μM of each compound for 24 hours. For the gene expression profile, the cells were treated with the concentration that was considered to work better in the previous validation assays.

OSCs from mice = assay: Screen of mouse OSCs for compounds that enhance mitochondrial function (mtDNA, ATP, mitochondrial mass, membrane potential, gene expression); assay type: cell-based; conditions: 24 hours; for activity above the baseline (DMSO alone), scored as a positive result: 25 or 50 μM (berberine 5 μM and 25 μM)
Description: Female infertility due to chemotherapy, aging and premature ovarian failure (POF) is due in part to a decline in mitochondrial function in oocytes and OSCs. Accordingly, OSCs from mice were used to screen for small compounds that enhance mitochondrial function (“bioenergetic status”) in female germline cells. Assays for enhancing mitochondrial function included mtDNA content, ATP, NAD+/NADH, mitochondrial mass, mitochondrial membrane potential, and gene expression of known mitochondrial mass regulators and electron transport chain components.
All the compounds were dissolved in DMSO. For screening purposes the cells were treated with the vehicle (0.001% DMSO) or with 25 or 50 μM of each compound (except for berberine, which the concentrations used for the screen were 5 μM and 25 μM) for 24 hours. For validation of the top 6 hits, cells were treated with vehicle (0.001% DMSO) or either 5 or 25 μM of each compound for 24 hours. For the gene expression profile, the cells were treated with the concentration that was considered to work better in the previous validation assays.
Mitochondrial membrane potential was measured with a fluorescent probe, Tetramethylrhodamine methyl ester (TMRM) (Sigma) as described before (Rolo A. P. Biochim. Biophys. Acta 2003 1637: 127-132). Briefly the cells were loaded with 6.6 μM TMRM in HBSS buffer at 37° C. for 15 minutes in the dark. The supernatant was then aspirated, and the cells returned to the original volume with KHH. TMRM is a membrane-permeable cationic fluorophore that accumulates electrophoretically in mitochondria in proportion to their mitochondrial membrane potential (Ehrenberg B. V. et al. Biophys. J. 1988 53:785-794). Cell suspensions (200 μl containing 10^5 cells) were loaded into 96-well plates and fluorescence measured using excitation and emission wavelengths of 485 and 590 nm, respectively. Mitochondrial membrane potential was estimated, taking into account the complete depolarization caused by carbonyl cyanide p-(trifluoromethoxy)phenylhydrazone (FCCP).
For mtDNA analysis, total DNA was extracted with DNeasy blood and tissue kit (QIAGEN). mtDNA was amplified using primers specific for the mitochondrial cytochrome c oxidase subunit 2 (COX2) gene and normalized to genomic DNA by amplification of the ribosomal protein s18 (rps18) nuclear gene. Primers were designed using the IDT software (IDT).
ATP content was measured using a luciferase-based assay with a commercial kit according to the manufacturer's instructions (Roche Applied Science, Penzberg, Germany) and normalized to protein content in each sample.
Mitochondrial mass was evaluated using the fluorescent probe N-nonyl acridine orange (NAO), briefly the cells were incubated in culture media containing 10 nM of NAO for 30 minutes at 37° C. in the dark. The cells were then trypsinized and resuspended in culture media without NAO. The NAO fluorescence intensity was then determined by flow cytometry on the FACSCALIBUR® (BD Biosciences, San Jose, Calif., USA) using the 488 nm laser.
For gene expression analysis, RNA from skeletal muscle tissue and C2C12 cells were extracted with RNeasy mini kit (QIAGEN) according to the instructions and quantified using the NanoDrop 1000 spectrophotometer (Thermo Scientific). cDNA was synthesized with the iSCRIP cDNA synthesis kit (BioRad) using 200 ng of RNA. Quantitative RT-PCR reactions were performed using 1 μM of primers and LIGHTCYCLER® 480 SYBR® Green Master (Roche Applied Science, Penzberg, Germany) on an LIGHTCYCLER® 480 detection system (Roche Applied Science, Penzberg, Germany). Calculations were performed by a comparative method (2-ΔΔCT) using actin as an internal control. Primers were designed using the IDT software (IDT).

SMILES: O=c1cc(-c2ccc(O)cc2)oc2cc(O)cc(O)c12 [apigenin, 5,7-Dihydroxy-2-(4-hydroxyphenyl)-4H-1-benzopyran-4-one]
- NAD^+ levels (Mouse OSCs): raise
- mitochondrial parameters (OSCs from mice): increase mitochondrial parameters in a beneficial way
- activity above the baseline (DMSO alone), scored as a positive result (OSCs from mice): activity above the baseline

SMILES: O=c1cc(-c2ccc(O)c(O)c2)oc2cc(O)cc(O)c12 [luteolin, 2-(3,4-Dihydroxyphenyl)-5,7-dihydroxy-4-chromenone]
- NAD^+ levels (Mouse OSCs): raise
- mitochondrial parameters (OSCs from mice): increase mitochondrial parameters in a beneficial way
- activity above the baseline (DMSO alone), scored as a positive result (OSCs from mice): activity above the baseline

SMILES: O=C(Nc1ccccc1-c1cn2c(CN3CCNCC3)csc2n1)c1cnc2ccccc2n1 [SRT-1720, N-[2[3-(piperazin-1-ylmethyl)imidazo[2,1-b][1,3]thiazol-6-yl]phenyl]quinoxaline-2-carboxamide]
- mitochondrial parameters (OSCs from mice): increase mitochondrial parameters in a beneficial way
- activity above the baseline (DMSO alone), scored as a positive result (OSCs from mice): activity above the baseline

Source: patent US9845482B2, “Compositions and methods for enhancing bioenergetic status in female germ cells” (The General Hospital Corporation, priority 2011, dated 2017)
